The text below walks through data of patent US8853215B2, “Derivatives of N-acyl-N′-phenylpiperazine useful (inter alia) for the prophylaxis or treatment of diabetes” (Takeda Pharmaceutical Company Limited, priority 2009, dated 2014).

In one assay the target is human RBP4 (Homo sapiens (Human), UniProt P02753). Kind of assay: Binding assay by Retinol-RBP4-TTR ELISA. As to conditions: at 10 μM compound; read-out: human RBP4 binding inhibitory activity(% at 10 μM). The protocol:
The action of the compound of the present invention to inhibit binding of RBP4 and retinol and TTR was evaluated using the Retinol-RBP4-TTR ELISA system shown below.
1F: Binding Assay by Retinol-RBP4-TTR ELISA
This ELISA system detects a complex of RBP4 and TTR based on a retinol-dependent binding of RBP4 to TTR.
His-tagged human RBP4 used was prepared in the above-mentioned 1C.
Biotinylate human TTR used was prepared in the above-mentioned 1E.
Streptavidin (20 μl) (10 μg/ml Streptavidin type II (Wako Pure Chemical Industries, Ltd.), 10 mM Tris-HCl (pH 7.5), 10 mM NaCl) was added to a 384 well black plate (Nunc MaxiSorp, Thermo Fisher Scientific Inc.), and the plate was subjected to centrifugation (1000 rpm, 1 min) and coated overnight at 4° C. The plate was washed twice with PBST (PBS, 0.05% Tween 20, 100 μl/well) and blocked with 25% Block Ace (Snow Brand Milk Products Co., Ltd., PBS, 100 μl/well). The plate was subjected to centrifugation (1000 rpm, 1 min) and incubated at room temperature for 4 hr or overnight at 4° C. The plate was washed twice with PBST (PBS, 0.05% Tween 20, 100 μl/well), and biotinylate human TTR (stock solution concentration 1.0 mg/ml) diluted 750-fold with PBST was added at 20 μl/well. The plate was subjected to centrifugation (1000 rpm, 1 min) and stood still at room temperature for 1.5 hr or overnight at 4° C. The plate was washed 3 times with PBST (100 μl/well), and His-tagged human RBP4 (stock solution concentration 0.96 mg/ml) diluted 4000-fold with a reaction buffer (50 mM Tris-HCl, 150 mM NaCl, 0.005% Tween 20, 1 mM DTT, 0.1% BSA) was added at 10 μl/well. The dilution series (8 doses from 10 mM, 200-fold concentration) of the compound was prepared with DMSO, and 1 μl of each was added to a reaction buffer (200 μl) containing retinol (50 nM) (Sigma-Aldrich Co.). A reaction buffer (200 μl) containing retinol and added with DMSO was used as a positive control, and reaction buffer (200 μl) free of retinol and added with DMSO was used as a negative control. Mixed solutions of retinol and the compound were added to the plate at 15 μl/well. The plate was stirred in a platemixer subjected to centrifugation (1000 rpm, 1 min) and reacted at room temperature for 2 hr. A 35% Block Ace solution diluted with the reaction buffer was added at 10 μl/well, centrifuged (1000 rpm, 1 min) and reacted at room temperature for 30 min. The plate was washed 3 times with PBST (100 μl/well) and SuperSignal ELISA Femto Maximum Sensitivity Substrate reagent (PIERCE, Thermo Fisher Scientific Inc.) was added at 30 μl/well, and the luminescence was measured by a platereader (Wallac).
The binding inhibitory activity of the compound was determined by 100×(positive control value-test compound value)/(positive control value-negative control value). The binding activity (IC50) was calculated from the binding inhibitory rate at each compound concentration using a graph drawing software, GraphPad Prism (GraphPad Software Inc.).
Background: In an ELISA, binding on a coated surface is turned into a signal by an enzyme label.

The target in the next assay is RBP4 (Mus musculus (Mouse), UniProt Q00724). The experiment in a line: Single administration test in mice, plasma RBP4 by ELISA. The class given is in vivo. The conditions noted are these: male C57BL/6J or ICR mice, 50 mg/kg oral single dose, mean±SD; for RBP4 (% of initial/Control) 0 hr: 0 hr (just before the administration); for RBP4 (% of initial/Control) 4 hr: 4 hr after administration; for RBP4 (% of initial/Control) 7 hr: 7 hr after administration; for RBP4 (% of initial/Control) 24 hr: 24 hr after administration. The protocol:
The action of the compounds of the present invention to reduce plasma RBP4 level was evaluated using the animal model shown below.
Male C57BL/6J and ICR mice were purchased from Charles River (Japan) and maintained on a normal diet (CE2, CLAE Japan, Inc.) and tap water. Animals were housed in a temperature-controlled room adjusted to a 12-hour light/12-hour dark cycle beginning at 7:00 and 19:00, respectively. All procedures were conducted according to the experimental animal care use committee of Takeda Pharmaceutical Company.
Male 6-12-week-old C57BL/6J or ICR mice were housed individually and fed CE2 for 4-6 days. After acclimatization, mice were divided into groups based on their body weight. Compounds were suspended in 0.5% (w/v) methylcellulose in water and given orally to mice at a dose of 50 mg/10 mL/kg of body weight (three to five mice per group). Blood samples were obtained from orbital vein with sodium heparin as an anticoagulant at time 0 hr (just before the administration), 4 hr, 7 hr, and 24 hr after the administration, followed by plasma separation by centrifugation. Plasma RBP4 levels were measured by enzyme-linked immunosorbent assay described in the following section.
Plasma samples were analyzed in duplicate for RBP4 by an enzyme-linked immunosorbent assay. Mouse recombinant RBP4 (Takeda Pharmaceutical Company) was used as standards, and the assay range was 0.313-20 ng/ml. Samples were diluted 10,000-fold with phosphate-buffered saline (PBS) (Sigma) containing 10% (w/v) BlockAce (Dainippon Sumitomo Pharma Co., Ltd). Rabbit anti-RBP4 polyclonal antibody (100 μL/well of 50 μg/mL, Hokudo Co, Ltd) was incubated in a 96-well plate (Nalge Nunc International K.K.) for overnight at 4° C. Subsequently, the plates were washed with PBS-T (Wako Pure Chemical Industries, Ltd.) and blocked with PBS containing 25% BlockAce for 1 hr at room temperature. After another washing with PBS-T, samples and standards were applied to the well, and the plates were incubated for 2 hr at room temperature. After a washing the wells, peroxidase-labeled (Dojindo Laboratories) anti-RBP4 (100 μL/well) was added to the wells, and then the plates were incubated for 1 hr at room temperature. After a final washing with PBS-T, substrate solution 3,3,5,5-tetramethylbenzidine (Sigma) was added to the wells, and the plates were placed in the dark for 5-20 min at room temperature. The reaction was stopped with 0.5 M sulphuric acid and the optical density was measured with a spectrophotometer at 450 nm. The changes in plasma RBP4 levels were expressed as % of initial/Control. All data are presented as mean±SD.

On to `Cc1ccc(N2CCN(C(=O)C(=O)O)CC2)c(C(C)(C)C)c1` [Example 82, [4-(2-tert-Butyl-4-methylphenyl)piperazin-1-yl](oxo)acetic acid], for which the inhibition at 10 µM at human RBP4 worked out at 99%. For the same compound, on RBP4, the “RBP4 (% of initial/Control) 0 hr” value is listed as 100.0 ± 12.5 % of initial/Control, the “RBP4 (% of initial/Control) 4 hr” value is given as 54.6 ± 4.1 % of initial/Control, the “RBP4 (% of initial/Control) 7 hr” value was 74.2 ± 15.5 % of initial/Control and the “RBP4 (% of initial/Control) 24 hr” value is 101.5 ± 9.7 % of initial/Control.
On to `CC(C)(C)c1ccccc1N1CCN(C(=O)C(=O)NCC(=O)O)CC1` [Example 87, N-{[4-(2-tert-Butylphenyl)piperazin-1-yl](oxo)acetyl}glycine], for which, at human RBP4, the inhibition at 10 µM came to 100%. Moreover, on RBP4, the “RBP4 (% of initial/Control) 0 hr” value is recorded as 100.0 ± 13.6 % of initial/Control, the “RBP4 (% of initial/Control) 4 hr” value was 36.6 ± 1.0 % of initial/Control, the “RBP4 (% of initial/Control) 7 hr” value was 38.1 ± 1.3 % of initial/Control and the “RBP4 (% of initial/Control) 24 hr” value is reported as 80.3 ± 18.4 % of initial/Control.
In the case of `CC(C)(C)c1ccccc1N1CCN(C(=O)C(=O)N2CCC(C(=O)O)CC2)CC1` [Example 89, 1-{[4-(2-tert-Butylphenyl)piperazin-1-yl](oxo)acetyl}piperidine-4-carboxylic acid], the inhibition at 10 µM at human RBP4 turned out to be 99%. In addition, on RBP4, the “RBP4 (% of initial/Control) 0 hr” value is 100.0 ± 34.2 % of initial/Control, the “RBP4 (% of initial/Control) 4 hr” value is 42.5 ± 6.0 % of initial/Control, the “RBP4 (% of initial/Control) 7 hr” value is given as 46.6 ± 4.3 % of initial/Control and the “RBP4 (% of initial/Control) 24 hr” value is recorded as 105.9 ± 27.6 % of initial/Control.
`CC(C)(C)c1ccccc1N1CCN(C(=O)Cn2cnnn2)CC1` [Example 94, 1-(2-tert-Butylphenyl)-4-(1H-tetrazol-1-ylacetyl)piperazine]: on human RBP4, the inhibition at 10 µM amounted to 100%. Also, on RBP4, the “RBP4 (% of initial/Control) 0 hr” value is 100.0 ± 21.7 % of initial/Control, the “RBP4 (% of initial/Control) 4 hr” value is 45.7 ± 0.8 % of initial/Control, the “RBP4 (% of initial/Control) 7 hr” value was 58.9 ± 5.1 % of initial/Control and the “RBP4 (% of initial/Control) 24 hr” value is 89.2 ± 11.6 % of initial/Control.
Regarding `CC(C)(C)c1ccccc1N1CCN(C(=O)c2ncoc2CCC(=O)O)CC1` [Example 178, 3-(4-{[4-(2-tert-Butylphenyl)piperazin-1-yl]carbonyl}-1,3-oxazol-5-yl)propanoic acid], the inhibition at 10 µM on human RBP4 was 100%. On RBP4, the “RBP4 (% of initial/Control) 0 hr” value is 100.0 ± 12.8 % of initial/Control, the “RBP4 (% of initial/Control) 4 hr” value is listed as 70.1 ± 1.8 % of initial/Control, the “RBP4 (% of initial/Control) 7 hr” value was 67.0 ± 2.6 % of initial/Control and the “RBP4 (% of initial/Control) 24 hr” value is listed as 123.3 ± 14.2 % of initial/Control.
`CC(C)(C)c1cc(Cl)ccc1N1CCN(C(=O)C(=O)O)CC1` [Example 180, [4-(2-tert-Butyl-4-chlorophenyl)piperazin-1-yl](oxo)acetic acid]: on human RBP4, the inhibition at 10 µM was determined as 100%. For the same compound, at RBP4, the “RBP4 (% of initial/Control) 0 hr” value was 100.0 ± 23.0 % of initial/Control, the “RBP4 (% of initial/Control) 4 hr” value is listed as 63.0 ± 2.0 % of initial/Control, the “RBP4 (% of initial/Control) 7 hr” value was 61.0 ± 2.2 % of initial/Control and the “RBP4 (% of initial/Control) 24 hr” value is given as 93.0 ± 9.6 % of initial/Control.
In the same order, the values of `CC(C)(C)c1ccccc1N1CCN(C(=O)C(=O)N2CCC(C(=O)O)C2)CC1` (centres unmarked) [Example 191, 1-{[4-(2-tert-Butylphenyl)piperazin-1-yl](oxo)acetyl}pyrrolidine-3-carboxylic acid] are 100%, 100.0 ± 8.0 % of initial/Control, 65.0 ± 2.2 % of initial/Control, 61.2 ± 2.3 % of initial/Control and 127.6 ± 40.9 % of initial/Control.
For the compound `CC(C)(C)c1ccccc1N1CCN(C(=O)C(=O)Nc2ccc(CCC(=O)O)cc2)CC1` [Example 197, 3-[4-({[4-(2-tert-Butylphenyl)piperazin-1-yl](oxo)acetyl}amino)phenyl]propanoic acid], on human RBP4, the inhibition at 10 µM is 100%. Moreover, on RBP4, the “RBP4 (% of initial/Control) 0 hr” value is reported as 100.0 ± 22.3 % of initial/Control, the “RBP4 (% of initial/Control) 4 hr” value was 72.2 ± 3.6 % of initial/Control, the “RBP4 (% of initial/Control) 7 hr” value is recorded as 67.0 ± 1.8 % of initial/Control and the “RBP4 (% of initial/Control) 24 hr” value was 91.3 ± 15.9 % of initial/Control.
In the case of `CC(C)(C)c1ccccc1N1CCN(C(=O)C(=O)Nc2ccc(OCC(=O)O)cc2)CC1` [Example 201, [4-({[4-(2-tert-Butylphenyl)piperazin-1-yl](oxo)acetyl}amino)phenoxy]acetic acid], at human RBP4, the inhibition at 10 µM was determined as 99%. In addition, on RBP4, the “RBP4 (% of initial/Control) 0 hr” value was 100.0 ± 9.8 % of initial/Control, the “RBP4 (% of initial/Control) 4 hr” value is 65.0 ± 0.7 % of initial/Control, the “RBP4 (% of initial/Control) 7 hr” value is reported as 60.3 ± 1.0 % of initial/Control and the “RBP4 (% of initial/Control) 24 hr” value is reported as 100.2 ± 13.6 % of initial/Control.
With `CC(C)(C)c1ccccc1N1CCN(C(=O)C(=O)NCCc2ccc(C(=O)O)cc2)CC1` [Example 203, 4-[2-({[4-(2-tert-Butylphenyl)piperazin-1-yl](oxo)acetyl}amino)ethyl]benzoic acid], on human RBP4, the inhibition at 10 µM was 100%. Moreover, at RBP4, the RBP4 (% of initial/Control) 0 hr was 100 ± 2.82 % of initial/Control, the “RBP4 (% of initial/Control) 4 hr” value was 43.4 ± 1.8 % of initial/Control, the “RBP4 (% of initial/Control) 7 hr” value is 37.2 ± 1.0 % of initial/Control and the “RBP4 (% of initial/Control) 24 hr” value was 107.9 ± 15.6 % of initial/Control.
